Patent publication US20100172988A1, “SUSTAINED RELEASE PREPARATION AND METHOD FOR PRODUCTION THEREOF” (KISSEI PHARMACEUTICAL CO., LTD., priority 2006, published 2010)

What was measured:
[1] = Decomposition of compound (I) on adding a basic ingredient; type: physicochemical; details: basic ingredient added to compound (I)
[2] = pH dependence of the dissolution rate of compound (I); type: physicochemical; details: compared with approximately pH 1.2 (gastric juice) and approximately pH 6.8 (intestinal juice)

Compound: CCOC(=O)COc1cc(C)c(CCN[C@@H](C)[C@H](O)c2ccc(O)cc2)cc1C.Cl [compound (I), Ethyl (−)-2-[4-[2-[[(1S,2R)-2-hydroxy-2-(4-hydroxy-phenyl)-1-methylethyl]amino]ethyl]-2,5-dimethylphenoxy]-acetate hydrochloride]
- decomposition of compound (I) [1]: decomposition of compound (I) itself was accelerated
- pH of the highest dissolution rate of the active ingredient [2]: highest dissolution rate at approximately pH 4
